Measurements from ChEMBL document CHEMBL5120764, “Isarubrolone C Promotes Autophagic Degradation of Virus Proteins via Activating ATG10S in HepG2 Cells” (J Nat Prod, 2022).
Active and inactive are the calls of the source.

Experiments:
Type in all cases: functional, cell-based
[1] = test system: HepG2; assay: Induction of autophagy in human HepG2 cells transfected with HCV subgenomic replicon assessed as HCV-CORE/LAMP2 combination at 10 uM incubated for 24 hrs in presence of anti-LC3B antibodies by co-immunoprecipitation assay
[2] = test system: HepG2; assay: Induction of autophagy in human HepG2 cells transfected with HCV subgenomic replicon assessed as HCV-CORE/LAMP2 combination at 10 uM incubated for 24 hrs in presence of anti-LAMP2 antibodies by co-immunoprecipitation assay
[3] = test system: HepG2; assay: Upregulation of endogenous ATG10S activated co-localisation of ZIKV-NS5 with LAMP2 in human HepG2 cells co-transfected with ZIKV-NS5 and ATG10-misMO by cellular immunofluorescence assay
[4] = test system: HepG2; assay: Induction of autophagy in human HepG2 cells transfected with HCV sub-replicon assessed as decrease in HCV-CORE protein level upto 10 uM and measured after 6 hrs by western blot analysis; settings: DDE = dose-dependent effect
[5] = test system: HepG2; assay: Induction of autophagy in human HepG2 cells transfected with HCV subgenomic replicon assessed as HCV-NS5B/LC3B combination at 10 uM incubated for 24 hrs in presence of anti-LAMP2 antibodies by co-immunoprecipitation assay
[6] = test system: HepG2; assay: Induction of autophagy in human HepG2 cells transfected with HBV-X and gene knockdown by IL28A morpholinos assessed as LC3B and LAMP2 interaction at 10 uM incubated for 24 hrs in presence of anti-LC3B antibodies by co-immunoprecipitation assay
[7] = test system: HepG2; assay: Upregulation of P62 in human HepG2 cells transfected with HCV sub-replicon and gene knockdown by IL28A morpholinos at 10 uM incubated for 24 hrs by western blot analysis
[8] = test system: HepG2; assay: Upregulation of IL28A mRNA expression level in human HepG2 cells transfected with HIV-RT upto 10 uM by qRT-PCR analysis; settings: DDE = dose-dependent effect
[9] = test system: HepG2; assay: Upregulation of LC3B in human HepG2 cells transfected with ZIKV-NS5 and gene knockdown by IL28A morpholinos at 10 uM incubated for 24 hrs by western blot analysis
[10] = test system: HepG2; assay: Induction of autophagy in human HepG2 cells transfected with HCV subgenomic replicon assessed as HCV-NS5B/ATG10/ATG10S combination at 10 uM incubated for 24 hrs in presence of anti-LAMP2 antibodies by co-immunoprecipitation assay
[11] = test system: HepG2; assay: Upregulation of endogenous ATG10S activated co-localisation of HCV-NS5B with LC3B in human HepG2 cells co-transfected with HCV sub-replicon and ATG10-misMO by cellular immunofluorescence assay
[12] = test system: HepG2; assay: Downregulation of ZIKV-NS5 in human HepG2 cells transfected with ZIKV-NS5 upto 10 uM incubated for 24 hrs by western blot analysis
[13] = test system: HepG2; assay: Upregulation of LC3B in human HepG2 cells transfected with HCV sub-replicon and gene knockdown by IL28A morpholinos at 10 uM incubated for 24 hrs by western blot analysis
[14] = test system: HepG2; assay: Effect on LC3B-II protein degradation in human HepG2 cells at 10 uM pretreated with proteosome inhibitor MG132 for 12 hrs followed by compound addition and measured after 24 hrs by western blot analysis
[15] = test system: HepG2; assay: Effect on P62 degradation in human HepG2 cells at 10 uM pretreated with proteosome inhibitor MG132 for 12 hrs followed by compound addition and measured after 24 hrs by western blot analysis
[16] = test system: HepG2; assay: Upregulation of ATG10/ATG10S mRNA level in human HepG2 cells transfected with HBx upto 10 uM by RT-PCR analysis; settings: DDE = dose-dependent effect
[17] = test system: HepG2; assay: Upregulation of IL28A mRNA expression level in human HepG2 cells transfected with HBV-X upto 10 uM by qRT-PCR analysis; settings: DDE = dose-dependent effect
[18] = test system: HepG2; assay: Induction of autophagy in human HepG2 cells transfected with HBx assessed as increase in HBx-P62 interaction level at 10 uM incubated for 24 hrs in presence of anti-Flag antibodies by co-immunoprecipitation assay
[19] = test system: HepG2; assay: Effect on HBx degradation in human HepG2 cells transfected with HBx at 10 uM pretreated with proteosome inhibitor MG132 for 12 hrs followed by compound addition and measured after 24 hrs by western blot analysis
[20] = test system: HepG2; assay: Upregulation of endogenous ATG10S activated co-localisation of HBx with LAMP2 in human HepG2 cells co-transfected with HBx and ATG10-sMO by cellular immunofluorescence assay
[21] = test system: HepG2; assay: Induction of autophagy in human HepG2 cells transfected with HIV-RT assessed as increase in HIV-RT-LC3B interaction level at 10 uM incubated for 24 hrs in presence of anti-Flag antibodies by co-immunoprecipitation assay
[22] = test system: HepG2; assay: Upregulation of HIV-RT in human HepG2 cells transfected with HIV-RT and gene knockdown by IL28A morpholinos at 10 uM incubated for 24 hrs by western blot analysis
[23] = test system: HepG2; assay: Induction of autophagy in human HepG2 cells transfected with HCV subgenomic replicon assessed as HCV-CORE/P62 combination at 10 uM incubated for 24 hrs in presence of anti-LC3B antibodies by co-immunoprecipitation assay
[24] = test system: HepG2; assay: Upregulation of endogenous ATG10S activated co-localisation of ZIKV-NS5 with LAMP2 in human HepG2 cells co-transfected with ZIKV-NS5 and ATG10-sMO by cellular immunofluorescence assay
[25] = test system: HepG2; assay: Induction of autophagy in human HepG2 cells assessed as […] in LC3B marker expression level upto 10 uM and measured after 6 hrs by western blot analysis; settings: DDE = dose-dependent effect
[26] = test system: HepG2; assay: Upregulation of endogenous ATG10S activated co-localisation of ZIKV-NS5 with LC3B in human HepG2 cells co-transfected with ZIKV-NS5 and ATG10-sMO by cellular immunofluorescence assay
[27] = test system: HepG2; assay: Induction of autophagy in human HepG2 cells assessed as decrease in P62 expression level upto 10 uM and measured after 6 hrs by western blot analysis; settings: DDE = dose-dependent effect
[28] = test system: HepG2; assay: Induction of autophagy in human HepG2 cells co-transfected with ZIKV-NS5 assessed as decrease in ZIKV-NS5 protein level upto 10 uM and measured after 6 hrs by western blot analysis; settings: DDE = dose-dependent effect
[29] = test system: HepG2; assay: Upregulation of LC3B in human HepG2 cells transfected with HIV-RT and gene knockdown by IL28A morpholinos at 10 uM incubated for 24 hrs by western blot analysis
[30] = test system: HepG2; assay: Induction of autophagy in human HepG2 cells transfected with HCV subgenomic replicon assessed as HCV-CORE/LC3B combination at 10 uM incubated for 24 hrs in presence of anti-LAMP2 antibodies by co-immunoprecipitation assay
[31] = test system: HepG2; assay: Downregulation of HIV-RT in human HepG2 cells transfected with HIV-RT upto 10 uM incubated for 24 hrs by western blot analysis
[32] = test system: HepG2; assay: Upregulation of endogenous ATG10S activated co-localisation of ZIKV-NS5 with LC3B in human HepG2 cells co-transfected with ZIKV-NS5 and ATG10-misMO by cellular immunofluorescence assay
[33] = test system: HepG2; assay: Downregulation of HCV-NS5B in human HepG2 cells co-transfected with HCV-subreplicon and ATG10-misMO upto 10 uM incubated for 24 hrs by western blot analysis

Measured: Activity

CC[C@@H](O)c1nc(C)cc2c1C(=O)c1cc(=O)c3c(c(O)c1-2)O[C@@H]1O[C@H](C)[C@@H](OC)[C@@H](O)[C@]31O
active: [1] | [2] | [3] | [4] Dde | [5] | [6] | [7] | [8] Dde | [9] | [10] | [11] | [12] | [13] | [14] | [15] | [16] Dde | [17] Dde | [18] | [19] | [20] | [21] | [22] | [23] | [24] | [25] Dde | [26] | [27] Dde | [28] Dde | [29] | [30] | [31] | [32] | [33]
